Where only a bound is given, the exact number is not on record here.

As usually defined, the DC50 is the midpoint of the concentration-degradation curve.

One assay deals with T1, ER (Homo sapiens, UniProt P03372).
T1 construct: host or cells: T47D and MCF7 human breast cancer cells
T1 sequence (P03372 1-595): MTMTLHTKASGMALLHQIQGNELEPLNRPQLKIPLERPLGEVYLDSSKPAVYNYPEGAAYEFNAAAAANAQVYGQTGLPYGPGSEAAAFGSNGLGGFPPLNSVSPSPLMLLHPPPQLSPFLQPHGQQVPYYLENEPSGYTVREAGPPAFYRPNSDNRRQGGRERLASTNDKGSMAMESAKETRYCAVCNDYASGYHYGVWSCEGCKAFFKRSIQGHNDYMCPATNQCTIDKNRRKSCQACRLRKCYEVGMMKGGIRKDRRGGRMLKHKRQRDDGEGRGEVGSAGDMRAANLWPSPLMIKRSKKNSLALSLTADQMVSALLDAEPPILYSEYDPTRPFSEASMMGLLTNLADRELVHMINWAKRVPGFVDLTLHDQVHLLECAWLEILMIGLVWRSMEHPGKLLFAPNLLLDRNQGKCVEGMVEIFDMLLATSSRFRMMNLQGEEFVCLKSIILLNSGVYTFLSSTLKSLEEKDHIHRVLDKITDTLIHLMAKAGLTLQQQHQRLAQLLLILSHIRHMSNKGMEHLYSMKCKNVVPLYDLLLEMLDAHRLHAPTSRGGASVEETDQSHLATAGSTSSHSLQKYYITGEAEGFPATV
Description: ER degradation activity, in-cell western blot analysis in T47D cells. It counts as cell-based. The following applies: 16 hours, Table A does not say which cell line (T47D or MCF7), read-out: Potency (DC50). In a few lines: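 In-cell western, T47D; compounds 16 h, 0.5% DMSO final; anti-rabbit-680/anti-mouse-800 secondaries, 1 h RT, dark; read on CLX imager. ER % vs untreated/DMSO wells (100%).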
On to `C[C@@H]1Cc2c([nH]c3ccccc23)[C@@H](c2c(F)cc(N3CCC(N4CC(CC(=O)N5Cc6cc7c(cc6C5)C(=O)N(C5CCC(=O)NC5=O)C7)C4)CC3)cc2F)N1CC(F)F` (stereo partly drawn) [E 56, 3-(6-(2-(1-(1-(4-((1R,3R)-2-(2,2-difluoroethyl)-3-methyl-2,3,4,9-tetrahydro-1H-pyrido[3,4-b]indol-1-yl)-3,5-difluorophenyl)piperidin-4-yl)azetidin-3-yl)acetyl)-1-oxo-3,5,6,7-tetrahydropyrrolo[3,4-f]isoindol-2(1H)-yl)piperidine-2,6-dione], for which the DC50 was in the range of 0.01 to 0.1 µM.
On to `C[C@@H]1Cc2c([nH]c3ccccc23)[C@@H](c2ccc(C3=CCC(C(=O)N4CCC(N5Cc6cc7c(cc6C5)C(=O)N(C5CCC(=O)NC5=O)C7=O)CC4)CC3)nc2)N1CC(F)F` (stereo partly drawn) [E 314, 6-(1-(4-(5-((1R,3R)-2-(2,2-difluoroethyl)-3-methyl-2,3,4,9-tetrahydro-1H-pyrido[3,4-b]indol-1-yl)pyridin-2-yl)cyclohex-3-ene-1-carbonyl)piperidin-4-yl)-2-(2,6-dioxopiperidin-3-yl)-6,7-dihydropyrrolo[3,4-f]isoindole-1,3(2H,5H)-dione], for which the DC50 was over 0.1 µM.
On the same count and under the same terms, next, `C[C@@H]1Cc2c([nH]c3ccccc23)[C@@H](c2c(F)cc(N3CC4(CN(C(=O)CN5Cc6cc7c(cc6C5)C(=O)N(C5CCC(=O)NC5=O)C7=O)C4)C3)cc2F)N1CC(F)F` (stereo partly drawn) [E 82, 6-(2-(6-(4-((1R,3R)-2-(2,2-difluoroethyl)-3-methyl-2,3,4,9-tetrahydro-1H-pyrido[3,4-b]indol-1-yl)-3,5-difluorophenyl)-2,6-diazaspiro[3.3]heptan-2-yl)-2-oxoethyl)-2-(2,6-dioxopiperidin-3-yl)-6,7-dihydropyrrolo[3,4-f]isoindole-1,3(2H,5H)-dione]: under 0.01 µM.
Same read-out and setting: in the case of `C[C@@H]1Cc2c([nH]c3ccccc23)[C@@H](c2c(F)cc(N3CCC4(CCN(C(=O)CN5Cc6cc7c(cc6C5)C(=O)N(C5CCC(=O)NC5=O)C7=O)CC4)CC3)cc2F)N1CC(C)(F)F` (stereo partly drawn) [E 253, 6-(2-(9-(4-((1R,3R)-2-(2,2-difluoropropyl)-3-methyl-2,3,4,9-tetrahydro-1H-pyrido[3,4-b]indol-1-yl)-3,5-difluorophenyl)-3,9-diazaspiro[5.5]undecan-3-yl)-2-oxoethyl)-2-(2,6-dioxopiperidin-3-yl)-6,7-dihydropyrrolo[3,4-f]isoindole-1,3(2H,5H)-dione] it was under 0.01 µM.
On the same count and under the same terms, in the case of `O=C1CCC(N2C(=O)c3cc4c(cc3C2=O)CN(CC(=O)N2CCC3(CC2)CCN(c2ccc([C@@H]5c6ccc(O)cc6CC[C@@H]5c5ccccc5)cc2)CC3)C4)C(=O)N1` (stereo partly drawn) [E 149, 2-(2,6-dioxopiperidin-3-yl)-6-(2-(9-(4-((1R,2S)-6-hydroxy-2-phenyl-1,2,3,4-tetrahydronaphthalen-1-yl)phenyl)-3,9-diazaspiro[5.5]undecan-3-yl)-2-oxoethyl)-6,7-dihydropyrrolo[3,4-f]isoindole-1,3(2H,5H)-dione] it was under 0.01 µM; in that of `C[C@@H]1Cc2c([nH]c3ccccc23)[C@@H](c2c(F)cc(N3CCC(N4CC(C(=O)N5Cc6cc7c(cc6C5)C(=O)N(C5CCC(=O)NC5=O)C7)C4)CC3)cc2F)N1CC(F)F` (stereo partly drawn) [E 120, 3-(6-(1-(1-(4-((1R,3R)-2-(2,2-difluoroethyl)-3-methyl-2,3,4,9-tetrahydro-1H-pyrido[3,4-b]indol-1-yl)-3,5-difluorophenyl)piperidin-4-yl)azetidine-3-carbonyl)-1-oxo-3,5,6,7-tetrahydropyrrolo[3,4-f]isoindol-2(1H)-yl)piperidine-2,6-dione], 0.01 to 0.1 µM; in that of `C[C@@H]1Cc2c([nH]c3ccccc23)[C@@H](c2cnc(N3CCC(CN4CCC(N5Cc6cc7c(cc6C5)C(=O)N(C5CCC(=O)NC5=O)C7=O)CC4)CC3)nc2)N1CC(F)F` (stereo partly drawn) [E 261, 6-(1-((1-(5-((1R,3R)-2-(2,2-difluoroethyl)-3-methyl-2,3,4,9-tetrahydro-1H-pyrido[3,4-b]indol-1-yl)pyrimidin-2-yl)piperidin-4-yl)methyl)piperidin-4-yl)-2-(2,6-dioxopiperidin-3-yl)-6,7-dihydropyrrolo[3,4-f]isoindole-1,3(2H,5H)-dione], 0.01 to 0.1 µM.
Regarding `O=C1CCC(N2C(=O)c3cc4c(cc3C2=O)CN(C(=O)C2CCC(CN3CCN(c5ccc([C@@H]6c7ccc(O)cc7CC[C@@H]6c6ccccc6)cc5)CC3)CC2)C4)C(=O)N1` (stereo partly drawn) [E 365, 2-(2,6-dioxopiperidin-3-yl)-6-(4-((4-(4-((1R,2S)-6-hydroxy-2-phenyl-1,2,3,4-tetrahydronaphthalen-1-yl)phenyl)piperazin-1-yl)methyl)cyclohexane-1-carbonyl)-6,7-dihydropyrrolo[3,4-f]isoindole-1,3(2H,5H)-dione], the DC50 is over 0.1 µM.
Still for that read-out and setting: next, `C[C@@H]1Cc2c([nH]c3ccccc23)[C@@H](c2c(F)cc(N3CCC(N4CC(CN5Cc6cc7c(cc6C5)C(=O)N(C5CCC(=O)NC5=O)C7=O)C4)CC3)cc2F)N1CC(F)F` (stereo partly drawn) [E 117, 6-((1-(1-(4-((1R,3R)-2-(2,2-difluoroethyl)-3-methyl-2,3,4,9-tetrahydro-1H-pyrido[3,4-b]indol-1-yl)-3,5-difluorophenyl)piperidin-4-yl)azetidin-3-yl)methyl)-2-(2,6-dioxopiperidin-3-yl)-6,7-dihydropyrrolo[3,4-f]isoindole-1,3(2H,5H)-dione]: 0.01 to 0.1 µM; `C[C@@H]1Cc2cc(O)ccc2C(c2ccc(N3CCC(C(=O)N4CCC(N5Cc6cc7c(cc6C5)C(=O)N(C5CCC(=O)NC5=O)C7=O)CC4)CC3)cc2)N1CC(F)F` (stereo partly drawn) [E 321, 6-(1-(1-(4-((3R)-2-(2,2-difluoroethyl)-6-hydroxy-3-methyl-1,2,3,4-tetrahydroisoquinolin-1-yl)phenyl)piperidine-4-carbonyl)piperidin-4-yl)-2-(2,6-dioxopiperidin-3-yl)-6,7-dihydropyrrolo[3,4-f]isoindole-1,3(2H,5H)-dione]: under 0.01 µM.

Still in this assay, the particulars now being: compounds 16 hours, Table A does not say whether T47D or MCF7, read-out: Potency (DC50).
In the case of `O=C1CCC(N2C(=O)c3cc4c(cc3C2=O)CN(CC2CCC3(CC2)CN(C(=O)c2ccc([C@@H]5c6ccc(O)cc6CC[C@@H]5c5ccccc5)cc2)C3)C4)C(=O)N1` (stereo partly drawn) [E 493, 2-(2,6-dioxopiperidin-3-yl)-6-((2-(4-((1R,2S)-6-hydroxy-2-phenyl-1,2,3,4-tetrahydronaphthalen-1-yl)benzoyl)-2-azaspiro[3.5]nonan-7-yl)methyl)-6,7-dihydropyrrolo[3,4-f]isoindole-1,3(2H,5H)-dione], the DC50 is over 0.1 µM.
The same measure, in the same setting: next, `C[C@@H]1Cc2cc(O)ccc2[C@H](c2c(F)cc(OC3CC4(CCN(C(=O)CN5Cc6cc7c(cc6C5)C(=O)N(C5CCC(=O)NC5=O)C7=O)CC4)C3)cc2F)N1CC(F)F` (stereo partly drawn) [E 456, 6-(2-(2-(4-((1R,3R)-2-(2,2-difluoroethyl)-6-hydroxy-3-methyl-1,2,3,4-tetrahydroisoquinolin-1-yl)-3,5-difluorophenoxy)-7-azaspiro[3.5]nonan-7-yl)-2-oxoethyl)-2-(2,6-dioxopiperidin-3-yl)-6,7-dihydropyrrolo[3,4-f]isoindole-1,3(2H,5H)-dione]: over 0.1 µM; `COc1c2c(cc3c1CN(C1CCC(=O)NC1=O)C3=O)CN(CC(=O)N1CCC3(CC1)CCN(c1cc(F)c([C@@H]4c5ccc(O)cc5C[C@@H](C)N4CC(F)F)c(F)c1)CC3)C2` (stereo partly drawn) [E 461, 3-(6-(2-(9-(4-((1S,3R)-2-(2,2-difluoroethyl)-6-hydroxy-3-methyl-1,2,3,4-tetrahydroisoquinolin-1-yl)-3,5-difluorophenyl)-3,9-diazaspiro[5.5]undecan-3-yl)-2-oxoethyl)-4-methoxy-1-oxo-3,5,6,7-tetrahydropyrrolo[3,4-f]isoindol-2(1H)-yl)piperidine-2,6-dione]: under 0.01 µM.
The same measure, in the same setting: in the case of `C[C@@H]1Cc2c([nH]c3ccccc23)[C@@H](c2ccc(C3=CCC4(CC3)CCN(C(=O)CN3Cc5cc6c(cc5C3)C(=O)N(C3CCC(=O)NC3=O)C6=O)CC4)cc2F)N1CC(F)F` (stereo partly drawn) [E 477, 6-(2-(9-(4-((1R,3R)-2-(2,2-difluoroethyl)-3-methyl-2,3,4,9-tetrahydro-1H-pyrido[3,4-b]indol-1-yl)-3-fluorophenyl)-3-azaspiro[5.5]undec-8-en-3-yl)-2-oxoethyl)-2-(2,6-dioxopiperidin-3-yl)-6,7-dihydropyrrolo[3,4-f]isoindole-1,3(2H,5H)-dione] it was over 0.1 µM; in that of `C[C@@H]1Cc2c([nH]c3ccccc23)[C@@H](c2ccc(C3CCC(C(=O)N4CCC(N5Cc6cc7c(cc6C5)C(=O)N(C5CCC(=O)NC5=O)C7=O)CC4)CC3)c(F)c2)N1CC(F)F` (stereo partly drawn) [E 475, 6-(1-(4-(4-((1R,3R)-2-(2,2-difluoroethyl)-3-methyl-2,3,4,9-tetrahydro-1H-pyrido[3,4-b]indol-1-yl)-2-fluorophenyl)cyclohexane-1-carbonyl)piperidin-4-yl)-2-(2,6-dioxopiperidin-3-yl)-6,7-dihydropyrrolo[3,4-f]isoindole-1,3(2H,5H)-dione], 0.01 to 0.1 µM.

These data come from patent publication US20240190880A1 (THE REGENTS OF THE UNIVERSITY OF MICHIGAN, priority 2021, published 2024).
